From patent US6372243B2, “Low-oxygen fluorocarbon as an agent for ophthalmology” (Pharm pur GmbH, priority 1998, dated 2002)

Tested on: retinal blood vessels
Assay: fluorocarbon inserted into the vitreous area of the rabbit eye, examination for retinal vessel damage
Type: in vivo
Conditions: 1.2 ml into one eye each of two rabbits after gas compression of the vitreous body; durations of between two days and six weeks
Description: In fluorescence angiography, a narrowing of the vessels appears from the second post-operative day. As time passes, vessel occlusions, a rarefaction of the capillary bed and the development of microaneurisms appear.
This oxygen-lacking perfluorodecalin was then sterile filtered and injected into one eye each of two rabbits, whereby, prior to the injection, the vitreous body was gas compressed in a known manner. After the gas compression, the gas was […] exchanged for 1.2 ml of the deoxygenated perfluorodecalin, so that about two thirds of the vitreous body area, including the area of the retinal blood vessels, was filled with perfluorodecalin.
After durations of between two days and six weeks, the eyes were examined for vessel damage.

## FC1(F)C(F)(F)C(F)(F)C2(F)C(F)(F)C(F)(F)C(F)(F)C(F)(F)C2(F)C1(F)F (stereo not shown) [oxygen-lacking perfluorodecalin, perfluorodecalin]
  eyes examined for vessel damage, in comparison to the untreated eye: completely normal condition
